The assay deals with P388 leukemia ip, CD2F1 mice, survival T/C. Nature of the assay: NCI In Vivo Anticancer Drug Screen. Data for tumor model P388 Leukemia (intraperitoneal) in CD2F1 (CDF1) mice. The following applies: endpoint: median survival time, higher = longer survival. In outline:
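Mice carrying the transplanted tumor received test compound or vehicle. Survival was recorded in each group, and the value is the treated-group measurement divided by that of the vehicle-treated control group.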

Where [1] appears, read: dose: 50.0 mg/kg/injection, schedule: Q01DX009 (ip), vehicle: saline.
Setting [2] is: dose: 100.0 mg/kg/injection, schedule: Q04DX002 (ip), vehicle: Klucel (hydroxypropylcellulose) (HPC).
The mark [3] stands for this setting: dose: 200.0 mg/kg/injection, schedule: Q04DX002 (ip), vehicle: Klucel (hydroxypropylcellulose) (HPC).
The mark [4] stands for this setting: dose: 50.0 mg/kg/injection, schedule: Q01DX009 (ip), vehicle: Klucel (hydroxypropylcellulose) (HPC).
[5] abbreviates: dose: 100.0 mg/kg/injection, schedule: Q01DX009 (ip), vehicle: Klucel (hydroxypropylcellulose) (HPC).
Where [6] appears, read: dose: 200.0 mg/kg/injection, schedule: Q01DX009 (ip), vehicle: Klucel (hydroxypropylcellulose) (HPC).
[7] abbreviates: dose: 50.0 mg/kg/injection, schedule: Q01DX005 (ip), vehicle: Klucel (hydroxypropylcellulose) (HPC).
The mark [8] stands for this setting: dose: 100.0 mg/kg/injection, schedule: Q01DX005 (ip), vehicle: Klucel (hydroxypropylcellulose) (HPC).
The mark [9] stands for this setting: dose: 200.0 mg/kg/injection, schedule: Q01DX005 (ip), vehicle: Klucel (hydroxypropylcellulose) (HPC).
Setting [10] is: dose: 50.0 mg/kg/injection, schedule: Q01DX005 (ip), vehicle: saline.
[11] abbreviates: dose: 100.0 mg/kg/injection, schedule: Q01DX009 (ip), vehicle: saline with Tween-80.
[12] abbreviates: dose: 200.0 mg/kg/injection, schedule: Q01DX009 (ip), vehicle: saline with Tween-80.

SMILES strings stand for the structures. Values joined by “and” are separate entries in the source; they are usually repeats but may differ in a detail not shown here. Equal values may be shown once. Toxic doses and inconclusive results are not listed. Numbered stars: 1 amine (or outer) side, 2 acyl side, 3 side chain; on linkers, the order of the positions; unused ones are H or OH. Peptide text beside a SMILES is read from it. ξ: configuration not given here. ξγGlu = O=C(O)C(CCC(=O)[*:2])N[*:1]

Consider `c1cc2nc(N3CCNCC3)nc(N3CCOCC3)c2s1`, for which the T/C is 94 % of control under setting [1]; 97 % of control (dose: 100.0 mg/kg/injection, schedule: Q01DX009 (ip), vehicle: saline); 93 % of control (dose: 200.0 mg/kg/injection, schedule: Q01DX009 (ip), vehicle: saline).

For `NC(C[O-])C(=O)[O-].NCC(=O)[O-].[Mn+3]` (configuration not stated), the T/C by setting is: (dose: 100.0 mg/kg/injection, schedule: Q04DX002 (ip), vehicle: saline with Tween-80) 114 % of control; (dose: 200.0 mg/kg/injection, schedule: Q04DX002 (ip), vehicle: saline with Tween-80) 113 % of control.

As for `O=C(c1ccccc1)c1cccc[n+]1Cc1ccccc1`, the T/C was 103 % of control (dose: 12.5 mg/kg/injection, schedule: Q01DX009 (ip), vehicle: saline); 96 % of control (dose: 25.0 mg/kg/injection, schedule: Q01DX009 (ip), vehicle: saline); 98 % of control and 100 % of control under setting [1].

In the case of `CC1=NOCC(=O)N1`, the T/C was 106 % of control (dose: 50.0 mg/kg/injection, schedule: Q01DX005 (ip), vehicle: distilled water + alcohol); 102 % of control (dose: 100.0 mg/kg/injection, schedule: Q01DX005 (ip), vehicle: distilled water + alcohol); 105 % of control (dose: 200.0 mg/kg/injection, schedule: Q01DX005 (ip), vehicle: distilled water + alcohol).

For the compound `Cc1ccc(-c2csc3nc(C)c(CN4CCOCC4)c(=O)n23)cc1`, the T/C runs as follows: (dose: 25.0 mg/kg/injection, schedule: Q04DX002 (ip), vehicle: Klucel (hydroxypropylcellulose) (HPC)) 99 % of control; (dose: 50.0 mg/kg/injection, schedule: Q04DX002 (ip), vehicle: Klucel (hydroxypropylcellulose) (HPC)) 106 % of control; under setting [2], 101 % of control; under setting [3], 102 % of control.

Consider `O=S1(=O)N=C(N2CCOCC2)c2ccccc21`, for which the T/C (dose: 50.0 mg/kg/injection, schedule: Q01DX005 (ip), vehicle: saline with Tween-80) is 101 % of control; the T/C (dose: 100.0 mg/kg/injection, schedule: Q01DX005 (ip), vehicle: saline with Tween-80) is 101 % of control; the T/C (dose: 200.0 mg/kg/injection, schedule: Q01DX005 (ip), vehicle: saline with Tween-80) is 99 % of control.

For the compound `CP1(=O)CC23CCCCC2(C1)O3` (configuration not stated), the T/C was 109 % of control under setting [4], 104 % of control under setting [5] and 109 % of control under setting [6].

In the case of `COc1ccc2c(c1)N=C(NNC1=Nc3cc(OC)ccc3SC1)CS2`, the T/C was 113 % of control and 97 % of control (dose: 15.0 mg/kg/injection, schedule: Q01DX005 (ip), vehicle: saline with Tween-80); 101 % of control and 102 % of control (dose: 30.0 mg/kg/injection, schedule: Q01DX005 (ip), vehicle: saline with Tween-80); 100 % of control and 91 % of control (dose: 60.0 mg/kg/injection, schedule: Q01DX005 (ip), vehicle: saline with Tween-80).

As for `CC(=O)Nc1ccc(S(=O)(=O)c2ccc(NC(C)=O)s2)s1`, the T/C by setting is: under setting [7], 98 % of control; under setting [8], 95 % of control; under setting [9], 89 % of control.

Take `COc1ccc(-c2nc3c(=O)[nH]c(=O)n(C)c3nc2-c2ccc(OC)c(OC)c2)cc1OC`: the T/C is, setting by setting: under setting [2], 97 % of control; under setting [3], 100 % of control; (dose: 400.0 mg/kg/injection, schedule: Q04DX002 (ip), vehicle: Klucel (hydroxypropylcellulose) (HPC)) 100 % of control.

For `Nc1ccccc1Cl`, the T/C (dose: 31.25 mg/kg/injection, schedule: Q01DX009 (ip), vehicle: saline with Tween-80) is 95 % of control; the T/C (dose: 62.5 mg/kg/injection, schedule: Q01DX009 (ip), vehicle: saline with Tween-80) is 109 % of control; the T/C (dose: 125.0 mg/kg/injection, schedule: Q01DX009 (ip), vehicle: saline with Tween-80) is 100 % of control.

`CCCCCCC1(/C=C\c2ccc(Cl)c(Cl)c2)OCCO1`: the T/C by setting is: under setting [4], 93 % of control; under setting [5], 108 % of control; under setting [6], 100 % of control.

For `CC1=C/C(=N/N=c2\ccn(O)cc2C)C=CC1=N`, the T/C runs as follows: (dose: 3.13 mg/kg/injection, schedule: Q01DX009 (ip), vehicle: saline with Tween-80) 100 % of control; (dose: 6.25 mg/kg/injection, schedule: Q01DX009 (ip), vehicle: saline with Tween-80) 95 % of control; (dose: 12.5 mg/kg/injection, schedule: Q01DX009 (ip), vehicle: saline with Tween-80) 104 % of control; (dose: 25.0 mg/kg/injection, schedule: Q01DX009 (ip), vehicle: saline with Tween-80) 98 % of control.

`C1=NCCCN2CCCCC12` (configuration not stated): the T/C by setting is: (dose: 20.0 mg/kg/injection, schedule: Q01DX009 (ip), vehicle: saline) 98 % of control; (dose: 40.0 mg/kg/injection, schedule: Q01DX009 (ip), vehicle: saline) 93 % of control.

As for `CN(C)c1ccc2c(=O)c(C(=O)O)c[nH]c2c1`, the T/C by setting is: (dose: 6.25 mg/kg/injection, schedule: Q01DX005 (ip), vehicle: saline) 96 % of control; (dose: 12.5 mg/kg/injection, schedule: Q01DX005 (ip), vehicle: saline) 100 % of control; (dose: 25.0 mg/kg/injection, schedule: Q01DX005 (ip), vehicle: saline) 96 % of control; (dose: 25.0 mg/kg/injection, schedule: Q01DX009 (ip), vehicle: water) 99 % of control; under setting [10], 95 % of control; (dose: 50.0 mg/kg/injection, schedule: Q01DX009 (ip), vehicle: water) 101 % of control. The T/C (dose: 100.0 mg/kg/injection, schedule: Q01DX009 (ip), vehicle: water) was 94 % of control; the T/C (dose: 200.0 mg/kg/injection, schedule: Q01DX009 (ip), vehicle: water) was 89 % of control; the T/C (dose: 400.0 mg/kg/injection, schedule: Q01DX009 (ip), vehicle: water) is 93 % of control.

Consider `c1ccc2nc(NCCSSCCNc3cnc4ccccc4n3)cnc2c1`, for which the T/C runs as follows: under setting [11], 86 % of control; under setting [12], 86 % of control; (dose: 400.0 mg/kg/injection, schedule: Q01DX009 (ip), vehicle: saline with Tween-80) 86 % of control.

With `CS(=O)(=O)C(=S)Sc1ccccc1`, the T/C is 97 % of control (dose: 25.0 mg/kg/injection, schedule: Q01DX001 (ip), vehicle: saline with Tween-80) and 97 % of control (dose: 50.0 mg/kg/injection, schedule: Q01DX001 (ip), vehicle: saline with Tween-80).

Consider `Cc1noc(C)c1-c1onc2ccc(Cl)cc12`, for which the T/C was 96 % of control under setting [5] and 96 % of control under setting [6].

Regarding `CC(=O)Oc1ccccc1C(=O)OCc1ccccc1`, the T/C is, setting by setting: under setting [7], 94 % of control; under setting [8], 92 % of control; under setting [9], 100 % of control.

Consider `Cc1[nH]c2c(N)cccc2c1C`, for which the T/C reads like this: (dose: 50.0 mg/kg/injection, schedule: Q01DX009 (ip), vehicle: saline with Tween-80) 97 % of control; under setting [11], 90 % of control; under setting [12], 88 % of control.

With `COc1cccc(C2Nc3ccccc3C(=O)N2N2CCOCC2)c1` (configuration not stated), the T/C under setting [7] was 100 % of control, the T/C under setting [8] is 94 % of control and the T/C under setting [9] was 96 % of control.

For `O=C1CSC(=S)N1c1ccc(F)cc1`, the T/C reads like this: (dose: 50.0 mg/kg/injection, schedule: Q01DX009 (ip), vehicle: suspension in saline) 106 % of control; (dose: 100.0 mg/kg/injection, schedule: Q01DX009 (ip), vehicle: suspension in saline) 100 % of control; (dose: 200.0 mg/kg/injection, schedule: Q01DX009 (ip), vehicle: suspension in saline) 90 % of control.

In the case of `NC(CCC(=O)NCC(=O)NCC(=O)O)C(=O)O` (stereo not drawn) (ξγGlu-Gly-Gly-OH), the T/C under setting [10] is 100 % of control; the T/C (dose: 100.0 mg/kg/injection, schedule: Q01DX005 (ip), vehicle: saline) is 97 % of control; the T/C (dose: 200.0 mg/kg/injection, schedule: Q01DX005 (ip), vehicle: saline) was 102 % of control.

Take `O=NN(CCCl)C(=O)NC1[C@H](O)CCC[C@@H]1O` (some centres not stated): the T/C is, setting by setting: (dose: 0.63 mg/kg/injection, schedule: Q01DX005 (ip), vehicle: saline) 118 % of control; (dose: 2.5 mg/kg/injection, schedule: Q01DX005 (ip), vehicle: saline) 159 % of control; (dose: 5.0 mg/kg/injection, schedule: Q01DX005 (ip), vehicle: saline) 190 % of control and 267 % of control; (dose: 10.0 mg/kg/injection, schedule: Q01DX005 (ip), vehicle: saline) 116 % of control and 206 % of control.

Values taken from PubChem BioAssay AID330 (DTP/NCI, 2004).
